Where “and” joins values, the source holds several entries; their conditions need not be identical. Identical values can stand only once. Like-named read-outs stand apart in the source and are kept apart here.
What was measured:
[1] = tested on: Mycobacterium tuberculosis; assay: Compounds tested against Mycobacterium tuberculosis (MIC90); assay type: cell-based
[2] = tested on: Candida albicans; assay: Anti-fungal data: Candida albicans; assay type: cell-based; details: for MFC / MIC80: strain A39; for MIC: strain A39, read-out: Candida albicans (A39) MIC100
[3] = tested on: Cryptococcus neoformans; assay: Anti-fungal data: Cryptococcus neoformans; assay type: cell-based
[4] = tested on: Trypanosoma brucei rhodesiense; assay: Anti-protozoan data: T.b.r. IC50; assay type: cell-based; details: read-out: T.b.r. IC50
[5] = tested on: Trypanosoma cruzi; assay: Anti-protozoan data: T. cruzi IC50; assay type: cell-based; details: read-out: T. cruzi IC50
[6] = tested on: L. donovani axenic amastigotes; assay: In vitro anti-leishmania activity (IC50 vs. L. donovani axenic amastigotes); assay type: cell-based; details: Leishmania donovani
[7] = tested on: Aspergillus fumigatus; assay: Anti-fungal data: Aspergillus fumigatus; assay type: cell-based; details: for MFC / MIC80: strain DUMC 168.95; for MIC: strain DUMC 168.95, read-out: Aspergillus. Fumigatus (DUMC 168.95) MIC100
[8] = in vitro
[9] = tested on: Plasmodium falciparum; assay: Anti-protozoan data: P. falcip. IC50; assay type: cell-based; details: read-out: P. falcip. IC50
[10] = tested on: DNA; assay: DNA binding ΔTm
[11] = Tables VI(a), VI(c), read-out: Leishmania donovani IC50
[12] = axenic amastigotes, Tables I-V, read-out: IC50 vs. L. donovani

SMILES	MIC90 ([1]; read-out: M. tb. MIC90)	MFC [2] [µg/mL]	MIC80 [2] [µg/mL]	MIC [2] [µg/mL]	IC50 ([4]; Tables VI(a), VI(c)) [nM]	IC50 ([5]; Tables VI(a), VI(c)) [nM]	IC50 [6, 11] [nM]	IC50 [6, 12] [nM]	MFC [7] [µg/mL]	MIC80 [7] [µg/mL]	MIC [7] [µg/mL]	melting point [°C]	IC50 [8] [nM]	IC50 ([9]; Tables VI(a), VI(c)) [nM]	DNA binding Δ Tm ([10]; Tables VI(a), VI(c))	other results
Cl.Cl.c1cc(OCCCCCCOc2ccc(C3=NCCN3)cc2)cc(-c2cc3ccc(C4=NCCN4)cc3o2)c1 [Compound 67, 2-(2-(3-(6-(4-(4,5-Dihydro-1H-imidazol-2-yl)phenoxy)hexyloxy)phenyl)benzofuran-6-yl)-4,5-dihydro-1H-imidazole dihydrochloride]	18 µg/mL and 29.4 µM	1.56	1.56	1.56	681	3670	43500 ± 690	43500 ± 690	> 100	12.5	12.5	182 to 186	1790	41.2		MFC ([3]; strain H99): 1.56 µg/mL; MIC80 ([3]; strain H99): 0.781 µg/mL; MIC ([3]; strain H99, read-out: Cryptococcus neoformans (H99) MIC100): 1.56 µg/mL
CC(C)NC(=N)c1ccc(OCCCCCOc2ccc(-c3cc4cc(C(=N)NC(C)C)ccc4o3)cc2)cc1.Cl.Cl [Compound 51, 2-(4-(5-(4-(N-Isopropylcarbamimidoyl)phenoxy)pentyloxy)phenyl)-N-isopropylbenzofuran-5-carboxamidine dihydrochloride]	0.9 µg/mL and 1.43 µM	100	100	100	302	7680	2080 ± 640		> 100	100	100	260 to 263	20500	193	18.7	
CC(C)NC(=N)c1ccc(OCCCCOc2ccc(-c3cc4cc(C(=N)NC(C)C)ccc4o3)cc2)cc1.Cl.Cl [Compound 48, 2-(4-(4-(4-(N-Isopropylcarbamimidoyl)phenoxy)butoxy)phenyl)-N-isopropylbenzofuran-5-carboxamidine dihydrochloride]	59.4 µg/mL and 95.6 µM	100	100	100	1110	21000	2970 ± 160		> 100	10	100	305	6920	302	13.3	
N=C(NO)c1ccc(OCCCOc2ccc(-c3cc4cc(C(=N)NO)ccc4o3)cc2)cc1 [Compound 182, 2-(4-(3-(4-(N-Hydroxycarbamimidoyl)phenoxy)propoxy)phenyl)-N-hydroxybenzofuran-5-carboxamidine]	0.65 µg/mL and 1.2 µM				1340	1700	5020 ± 930						2640	1400	1.10	
Cl.Cl.c1cc(C2=NCCN2)ccc1OCCCCCCOc1ccc(-c2cc3cc(C4=NCCN4)ccc3o2)cc1 [Compound 55, 2-(2-(4-(6-(4-(4,5-Dihydro-1H-imidazol-2-yl)phenoxy)hexyloxy)phenyl)benzofuran-5-yl)-4,5-dihydro-1H-imidazole dihydrochloride]	> 82.7 µg/mL and > 128 µM	10	10	10	360	1830	3320 ± 970			10	> 100	275 to 277	1480	116	14.4	
CC(C)NC(=N)c1ccc(OCCCCCOc2cccc(-c3cc4cc(C(=N)NC(C)C)ccc4o3)c2)cc1.Cl.Cl [Compound 39, 2-(3-(5-(4-(N-Isopropylcarbamimidoyl)phenoxy)pentyloxy)phenyl)-N-isopropylbenzofuran-5-carboxamidine dihydrochloride]	1.12 µg/mL and 1.8 µM	100	10	100	452	26000	6860 ± 2100	6860 ± 2100	> 100	10	100	225 to 227	10100	123	20.8	
Cl.Cl.N=C(N)c1ccc(OCCCCOc2ccc(-c3cc4cc(C(=N)N)ccc4o3)cc2)cc1 [Compound 47, 2-(4-(4-(4-Carbamimidoylphenoxy)butoxy)phenyl)benzofuran-5-carboxamidine dihydrochloride]	31.8 µg/mL and 59.8 µM	10	≤ 1	10	164	2490	610 ± 530	610 ± 530	> 100	10	100	310	1300	141	11.8	
CC(C)NC(=N)c1ccc(OCCCOc2cccc(-c3cc4cc(C(=N)NC(C)C)ccc4o3)c2)cc1.Cl.Cl [Compound 33, 2-(3-(3-(4-(N-Isopropylcarbamimidoyl)phenoxy)propoxy)phenyl)-N-isopropylbenzofuran-5-carboxamidine dihydrochloride]	< 0.62 µg/mL and < 1 µM	10	≤ 1	10	547	93600	4490 ± 560	4490 ± 560	> 100	10	100	205 to 208	26500	61.3	14.8	
N=C(NO)c1ccc(-c2cc3cc(C(=N)NO)ccc3o2)cc1 [Compound 178, 2-(4-(N-Hydroxycarbamimidoyl)phenyl)-N-hydroxybenzofuran-5-carboxamidine]													> 235000			DNA binding Δ Tm [10]: 4.50; MIC90 ([1]; Table VII(b), read-out: M. tb MIC90): > 128 µM; IC50 [4]: 23600 nM; IC50 [5]: > 235000 nM; IC50 ([6]; read-out: L. Donovani IC50): > 100000 nM; IC50 [9]: 783 nM
Cl.Cl.c1cc(C2=NCCN2)ccc1OCCCCOc1ccc(-c2cc3cc(C4=NCCN4)ccc3o2)cc1 [Compound 49, 2-(2-(4-(4-(4-(4,5-Dihydro-1H-imidazol-2-yl)phenoxy)butoxy)phenyl)benzofuran-5-yl) -4,5-dihydro-1H-imidazole dihydrochloride]			100	> 100	374	4510	9210 ± 2250	9210 ± 2250		100	> 100	291 to 293	2880	64.1	18.8	
Cl.Cl.N=C(N)c1ccc(OCCCOc2cccc(-c3cc4cc(C(=N)N)ccc4o3)c2)cc1 [Compound 32, 2-(3-(3-(4-Carbamimidoylphenoxy)propoxy)phenyl)benzofuran-5-carboxamidine dihydrochloride]	0.53 µg/mL and 1 µM	10	≤ 1	10	907	16100	3420 ± 900	3420 ± 900	> 100	10	100	175 to 178	10400	39.7	18.7	
